Values belong to the compound of their own block, whether it stands above or below them. Activity calls are given as the source filed them.
What was measured:
[1] = biological target: T1, NAD-dependent protein deacylase sirtuin-5, mitochondrial (Homo sapiens, UniProt Q9NXA8); experiment: SIRT5 deacylase inhibitors, dose response, biochemical, fluorescence imaging, cherry-pick, set 6 (AID 720597)
[2] = inhibitors of intracellular T. cruzi replication, confirmation, NIH3T3 host cells, beta-gal luminescence (AID 2044); type: functional, cell-based;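 further: intracellular parasites grown in NIH/3T3 mouse fibroblasts as host cells; luminescent beta-galactosidase reporter signal from transgenic T. cruzi replicating inside host cells; inhibitors lower the luminescence signal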
[3] = cytotoxicity toward NIH3T3 fibroblasts, dose response, counter-screen, cell-based, ATP luminescence, mouse fibroblasts (AID 2010); type: functional;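 further: cells exposed to compound for about 90 hours before reading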
[4] = biological target: T1, NAD-dependent protein deacylase sirtuin-5, mitochondrial; experiment: SIRT5 desuccinylase inhibitors, dose response, biochemical, fluorescence imaging, cherry-pick, set 5 (AID 720591);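 further: desuccinylation of succinyl peptide AMC substrate read as fluorescence after trypsin release; potency of inhibitors that lower fluorescence and may act on trypsin instead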
Caspase-7 = Caspase-7 (Homo sapiens, UniProt P55210); experiment: human caspase-7 inhibitors, dose response, selectivity assay for caspase-6 inhibitor project, biochemical, DEVD-R110 fluorescence, cherry-pick (AID 743295)
[5] = biological target: T2, Histone-lysine N-methyltransferase NSD2 (Homo sapiens, UniProt O96028); type: biochemical
T2 sequence (O96028 whole entry): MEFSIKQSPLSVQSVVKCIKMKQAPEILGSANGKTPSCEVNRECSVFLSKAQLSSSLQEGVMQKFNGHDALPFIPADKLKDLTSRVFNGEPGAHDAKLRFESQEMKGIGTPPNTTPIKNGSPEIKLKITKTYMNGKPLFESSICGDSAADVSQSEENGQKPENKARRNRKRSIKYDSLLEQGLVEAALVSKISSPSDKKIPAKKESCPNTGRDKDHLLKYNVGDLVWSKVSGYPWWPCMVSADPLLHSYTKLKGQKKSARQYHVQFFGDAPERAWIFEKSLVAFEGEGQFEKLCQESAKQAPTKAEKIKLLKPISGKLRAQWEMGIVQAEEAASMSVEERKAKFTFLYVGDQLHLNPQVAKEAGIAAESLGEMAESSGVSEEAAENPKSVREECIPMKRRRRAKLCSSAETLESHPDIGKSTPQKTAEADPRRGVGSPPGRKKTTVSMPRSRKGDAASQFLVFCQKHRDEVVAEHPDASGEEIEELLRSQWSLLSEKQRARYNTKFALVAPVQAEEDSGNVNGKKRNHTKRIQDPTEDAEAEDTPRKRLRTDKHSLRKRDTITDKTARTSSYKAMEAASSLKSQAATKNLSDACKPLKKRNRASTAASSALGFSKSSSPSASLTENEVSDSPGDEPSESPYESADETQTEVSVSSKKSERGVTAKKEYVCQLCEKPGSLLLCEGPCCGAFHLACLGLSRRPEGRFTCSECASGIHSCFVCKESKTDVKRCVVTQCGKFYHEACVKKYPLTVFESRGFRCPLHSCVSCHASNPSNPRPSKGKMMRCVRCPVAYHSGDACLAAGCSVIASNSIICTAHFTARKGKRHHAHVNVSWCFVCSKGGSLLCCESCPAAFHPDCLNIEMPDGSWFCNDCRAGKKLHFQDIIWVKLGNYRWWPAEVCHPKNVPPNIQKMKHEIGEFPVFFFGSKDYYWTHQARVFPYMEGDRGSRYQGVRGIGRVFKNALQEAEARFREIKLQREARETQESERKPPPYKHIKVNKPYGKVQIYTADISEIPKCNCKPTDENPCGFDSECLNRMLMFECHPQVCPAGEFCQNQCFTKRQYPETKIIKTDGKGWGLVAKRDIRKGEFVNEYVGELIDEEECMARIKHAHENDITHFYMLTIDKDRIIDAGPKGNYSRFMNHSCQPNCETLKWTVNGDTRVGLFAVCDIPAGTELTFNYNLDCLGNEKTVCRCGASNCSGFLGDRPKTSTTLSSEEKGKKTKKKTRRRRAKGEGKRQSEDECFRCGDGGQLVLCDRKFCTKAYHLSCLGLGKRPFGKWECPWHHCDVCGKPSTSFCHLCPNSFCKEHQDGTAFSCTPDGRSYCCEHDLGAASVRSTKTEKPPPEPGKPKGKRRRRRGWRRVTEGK

[6] = biological target: T3, DNA repair protein RAD52 homolog (Homo sapiens, UniProt P43351); type: functional, biochemical
T3 sequence (P43351 whole entry): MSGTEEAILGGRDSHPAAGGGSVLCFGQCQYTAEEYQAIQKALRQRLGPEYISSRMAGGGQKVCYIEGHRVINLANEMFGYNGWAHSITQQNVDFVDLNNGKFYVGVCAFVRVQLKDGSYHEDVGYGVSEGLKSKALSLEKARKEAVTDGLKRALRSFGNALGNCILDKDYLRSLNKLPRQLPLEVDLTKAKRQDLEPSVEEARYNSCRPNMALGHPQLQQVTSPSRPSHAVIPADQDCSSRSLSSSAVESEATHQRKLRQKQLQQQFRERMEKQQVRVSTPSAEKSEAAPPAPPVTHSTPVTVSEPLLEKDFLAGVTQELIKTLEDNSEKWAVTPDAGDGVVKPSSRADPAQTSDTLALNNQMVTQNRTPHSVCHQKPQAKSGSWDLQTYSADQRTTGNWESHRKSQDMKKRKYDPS

Protein skinhead-1 = biological target: T4, Protein skinhead-1 (Caenorhabditis elegans, UniProt P34707); type: functional
T4 sequence (P34707 whole entry): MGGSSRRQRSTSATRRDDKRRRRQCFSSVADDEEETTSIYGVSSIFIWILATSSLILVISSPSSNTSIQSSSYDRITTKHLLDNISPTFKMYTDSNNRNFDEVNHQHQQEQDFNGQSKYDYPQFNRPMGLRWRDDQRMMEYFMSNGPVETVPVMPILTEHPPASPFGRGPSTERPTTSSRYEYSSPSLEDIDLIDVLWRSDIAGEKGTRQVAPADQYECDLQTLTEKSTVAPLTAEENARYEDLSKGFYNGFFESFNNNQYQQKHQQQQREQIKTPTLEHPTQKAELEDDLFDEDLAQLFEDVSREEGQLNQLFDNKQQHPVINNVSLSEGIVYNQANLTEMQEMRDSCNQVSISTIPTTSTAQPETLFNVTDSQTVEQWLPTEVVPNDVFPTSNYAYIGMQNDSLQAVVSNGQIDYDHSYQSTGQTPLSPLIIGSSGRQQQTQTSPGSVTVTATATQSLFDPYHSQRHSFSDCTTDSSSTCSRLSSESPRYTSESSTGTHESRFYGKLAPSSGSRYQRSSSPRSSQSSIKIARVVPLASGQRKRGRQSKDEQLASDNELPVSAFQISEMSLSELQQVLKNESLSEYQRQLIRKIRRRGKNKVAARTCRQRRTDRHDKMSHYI

Caspase-6 = Caspase-6 (Homo sapiens, UniProt P55212); experiment: human caspase-6 inhibitors, dose response, biochemical, VEID-R110 fluorescence, cherry-pick (AID 720632)
Kallikrein-7 = Kallikrein-7 (Homo sapiens, UniProt P49862); experiment: Fluorescence Intensity-based biochemical primary high throughput dose response assay to identify activators of kallikrein-7 (K7) zymogen.
[7] = A549 cell cytotoxicity, dose response, cytotoxicity control, 24 h, CellTiter-Glo luminescence, cherry-picks (AID 1053115); type: functional, cell-based; settings: A549, 24 h
[8] = A549 cell cytotoxicity, dose response, CellTiter-Glo luminescence, dry powder, set 17 (AID 1117284); type: functional, cell-based
Paired box protein Pax-8 = Paired box protein Pax-8 (Homo sapiens, UniProt Q06710); experiment: inhibitors of PAX8-driven TPO luciferase reporter, dose response, RMG-I cells, cherry-pick (AID 687027); type: functional, cell-based;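 further: luciferase reporter driven by Pax8 target thyroperoxidase promoter measured by SteadyGlo luminescence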
[9] = HepG2 cell cytotoxicity, dose response, cytotoxicity control for Shn3 inhibitor project, CellTiter-Glo, cherry-picked (AID 624134); type: functional, cell-based
[10] = Shn3 3'UTR reporter inhibitors, dose response, cell-based, Clone20 osteoblasts, firefly luciferase, cherry-picked (AID 624132); type: functional;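 further: firefly luciferase luminescence from reporter carrying the Shn3 3'UTR in osteoblasts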
[11] = nonselective inhibitors of cellular cAMP signaling, dose response, counter-screen for MC4R biased antagonist project, cell-based, TR-FRET cAMP detection (AID 602305); type: functional;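 further: U2OS cells stimulated with forskolin near its EC80 as the cAMP inducer; potency is for inhibition of forskolin-stimulated cAMP signaling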
Melanocortin receptor 4 = Melanocortin receptor 4 (Homo sapiens, UniProt P32245); experiment: MC4R antagonist potency on cAMP, dose response, cell-based, TR-FRET, biased antagonists (AID 602298); type: functional;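 further: antagonist potency against agonist-stimulated cAMP production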
[12] = control 3'UTR Renilla luciferase suppression, dose response, counter-screen for Shn3 inhibitor project, cell-based, Clone20-Shn3RL, cherry-picked (AID 624133); type: functional
[13] = P. falciparum Dd2 blood-stage growth inhibition, dose response, SYBR Green fluorescence, erythrocytes, dry powder, set 2 (AID 1159574); type: functional, cell-based
[14] = Late stage assay provider results from the probe development effort to identify inhibitors of the Plasmodium falciparum M18 Aspartyl Aminopeptidase (M18AAP): radiolabel-based cell-based dose response assay to identify compounds that inhibit P. falciparum growth in RBCs, Set 2..; type: functional

T1 sequence (Q9NXA8 whole entry): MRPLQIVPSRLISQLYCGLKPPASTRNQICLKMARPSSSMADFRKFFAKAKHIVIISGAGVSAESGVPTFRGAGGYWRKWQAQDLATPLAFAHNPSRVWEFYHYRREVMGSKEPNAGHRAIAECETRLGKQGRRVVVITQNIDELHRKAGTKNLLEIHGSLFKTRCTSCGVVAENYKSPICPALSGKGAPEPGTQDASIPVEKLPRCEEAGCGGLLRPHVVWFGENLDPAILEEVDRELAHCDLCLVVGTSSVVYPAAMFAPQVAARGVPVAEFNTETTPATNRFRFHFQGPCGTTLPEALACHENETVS
Kallikrein-7, sequence (P49862 whole entry): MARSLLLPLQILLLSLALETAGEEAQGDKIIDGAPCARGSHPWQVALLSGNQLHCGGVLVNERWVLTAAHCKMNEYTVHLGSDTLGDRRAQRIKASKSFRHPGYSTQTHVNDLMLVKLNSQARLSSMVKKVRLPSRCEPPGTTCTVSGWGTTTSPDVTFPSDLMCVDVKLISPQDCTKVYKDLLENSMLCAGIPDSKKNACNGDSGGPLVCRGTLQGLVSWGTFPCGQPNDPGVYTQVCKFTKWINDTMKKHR
Paired box protein Pax-8, sequence (Q06710 whole entry): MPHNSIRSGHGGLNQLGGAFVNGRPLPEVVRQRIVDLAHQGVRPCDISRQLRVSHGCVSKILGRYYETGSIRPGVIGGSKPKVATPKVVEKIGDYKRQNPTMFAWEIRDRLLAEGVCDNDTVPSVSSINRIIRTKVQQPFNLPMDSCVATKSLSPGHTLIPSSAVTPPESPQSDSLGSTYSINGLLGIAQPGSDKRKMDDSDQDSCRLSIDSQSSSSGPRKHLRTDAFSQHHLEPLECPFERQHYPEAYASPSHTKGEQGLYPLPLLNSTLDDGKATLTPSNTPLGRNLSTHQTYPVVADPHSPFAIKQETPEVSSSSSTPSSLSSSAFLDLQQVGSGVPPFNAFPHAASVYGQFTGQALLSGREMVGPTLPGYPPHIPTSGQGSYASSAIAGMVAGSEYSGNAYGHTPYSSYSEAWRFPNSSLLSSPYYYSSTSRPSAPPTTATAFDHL
Caspase-6, sequence (P55212 24-179 limits assumed): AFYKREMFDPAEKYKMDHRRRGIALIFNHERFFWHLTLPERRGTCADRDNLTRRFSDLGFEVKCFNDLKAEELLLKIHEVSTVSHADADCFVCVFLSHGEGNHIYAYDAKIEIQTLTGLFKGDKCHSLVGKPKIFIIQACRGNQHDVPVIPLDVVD
Caspase-6, sequence (P55212 194-293 limits assumed): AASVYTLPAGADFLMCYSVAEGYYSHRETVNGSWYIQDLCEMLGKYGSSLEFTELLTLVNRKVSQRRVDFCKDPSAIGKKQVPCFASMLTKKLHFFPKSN
Melanocortin receptor 4, sequence (P32245 whole entry): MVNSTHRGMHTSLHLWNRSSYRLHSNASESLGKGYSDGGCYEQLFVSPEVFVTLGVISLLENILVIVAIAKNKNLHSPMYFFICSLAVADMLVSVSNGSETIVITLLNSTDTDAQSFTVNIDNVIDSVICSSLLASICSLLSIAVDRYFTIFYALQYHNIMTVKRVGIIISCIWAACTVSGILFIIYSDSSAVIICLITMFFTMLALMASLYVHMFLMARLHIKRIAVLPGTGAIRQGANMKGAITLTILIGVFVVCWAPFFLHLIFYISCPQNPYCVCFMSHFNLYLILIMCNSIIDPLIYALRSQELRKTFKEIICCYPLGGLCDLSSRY
Caspase-7, sequence (P55210 24-198 limits assumed): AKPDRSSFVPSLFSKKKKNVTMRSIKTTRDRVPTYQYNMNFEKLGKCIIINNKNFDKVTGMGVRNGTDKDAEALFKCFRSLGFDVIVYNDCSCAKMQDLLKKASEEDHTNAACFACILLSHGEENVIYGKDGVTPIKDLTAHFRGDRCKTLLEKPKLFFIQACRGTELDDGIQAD
Caspase-7, sequence (P55210 207-303 limits assumed): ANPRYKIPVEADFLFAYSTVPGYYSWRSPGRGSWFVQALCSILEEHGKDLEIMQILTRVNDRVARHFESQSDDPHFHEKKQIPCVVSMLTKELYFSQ

AC50 [1]: > 30 µM (inactive)
SMILES: COCC(=O)Nc1ccc2c(c1)OC[C@@H](C)N(CCc1ccccc1)C[C@@H](C)[C@H](OC)CN(C)C2=O

SMILES: CN1CCN(C(=O)COc2ccc(N(C)S(=O)(=O)c3ccc(F)cc3)cc2)CC1
EC50 [2]: 0.346 µM (active) | EC50 [3]: > 60 µM (not active) | AC50 [4]: > 30 µM (inactive)

AC50 (Caspase-7): 24.9 µM (active) | AC50 [5]: 2.52 µM (active) | AC50 [6]: 5.43 µM (active) | IC50 (Protein skinhead-1): > 100 µM (inactive) | AC50 (Caspase-6): 4.77 µM (active)
SMILES: COc1cc(NCCCCC(C)N)c2nccc(C)c2c1 (stereo not given)

EC50 (Kallikrein-7): > 7.72 µM (active)
SMILES: Fc1ccc(-c2nc3cnccn3c2NC2CCCC2)cc1

SMILES: C[C@H](O)C#Cc1ccc2c(c1)O[C@@H](CN(C)Cc1ccc(-c3ccccc3)cc1)[C@H](C)CN([C@@H](C)CO)S2(=O)=O
AC50 [7]: 42.8 µM (active) | AC50 [8]: 28.3 µM (active) | AC50 (Paired box protein Pax-8): 6.73 µM (active) | AC50 [9]: 19.4 µM (active) | AC50 [10]: 10.3 µM (active) | IC50 [11]: > 64.6 µM (inactive) | IC50 (Melanocortin receptor 4): > 64.6 µM (inactive) | AC50 [12]: 27.6 µM (active)

SMILES: COc1cccc(C#Cc2ccc([C@@H]3[C@H](CO)N4C(=O)CN(C(=O)Cc5ccccc5)C[C@@H]34)cc2)c1
AC50 [13]: > 20 µM (inactive)

SMILES: COc1ccc(CCN(C)c2c3ccccc3nc3ccccc23)cc1OC
IC50 [14]: 4.5 µM (active)

Source: ChEMBL document CHEMBL1201862, “PubChem BioAssay data set” (2004)
